Data published in PMC3523469 (Investigational New Drugs, 2012).
Like-named read-outs stand apart in the source and are kept apart here.

Format: in vivo, Japanese patients

COc1cc2ncnc(Nc3ccc(F)c(Cl)c3)c2cc1NC(=O)/C=C/CN1CCCCC1 [dacomitinib, Dacomitinib]
0: Nausea, number of patients with treatment-related AE (15 mg QD (n = 3), G3) | Palmar–plantar erythrodysesthesia, number of patients with treatment-related AE (15 mg QD (n = 3), G3) | Paronychia, number of patients with treatment-related AE (15 mg QD (n = 3), G3) | Proteinuria, number of patients with treatment-related AE (15 mg QD (n = 3), G3) | Rash, number of patients with treatment-related AE (15 mg QD (n = 3), G3) | Skin fissures, number of patients with treatment-related AE (15 mg QD (n = 3), G3) | Stomatitis, number of patients with treatment-related AE (15 mg QD (n = 3), G3) | Weight decreased, number of patients with treatment-related AE (15 mg QD (n = 3), G3) | Alanine aminotransferase increased, number of patients with treatment-related AE (30 mg QD (n = 3), All) | Aspartate aminotransferase increased, number of patients with treatment-related AE (30 mg QD (n = 3), All) | Blood bilirubin increased, number of patients with treatment-related AE (30 mg QD (n = 3), All) | ECG QT prolonged, number of patients with treatment-related AE (30 mg QD (n = 3), All) | Edema, number of patients with treatment-related AE (30 mg QD (n = 3), All) | Hematuria, number of patients with treatment-related AE (30 mg QD (n = 3), All) | Hypertrichosis, number of patients with treatment-related AE (30 mg QD (n = 3), All) | Leukopenia, number of patients with treatment-related AE (30 mg QD (n = 3), All) | Proteinuria, number of patients with treatment-related AE (30 mg QD (n = 3), All) | Skin fissures, number of patients with treatment-related AE (30 mg QD (n = 3), All) | Alanine aminotransferase increased, number of patients with treatment-related AE (30 mg QD (n = 3), G1) | Aspartate aminotransferase increased, number of patients with treatment-related AE (30 mg QD (n = 3), G1) | Blood bilirubin increased, number of patients with treatment-related AE (30 mg QD (n = 3), G1) | Decreased appetite, number of patients with treatment-related AE (30 mg QD (n = 3), G1) | Dry skin, number of patients with treatment-related AE (30 mg QD (n = 3), G1) | ECG QT prolonged, number of patients with treatment-related AE (30 mg QD (n = 3), G1) | Edema, number of patients with treatment-related AE (30 mg QD (n = 3), G1) | Fatigue, number of patients with treatment-related AE (30 mg QD (n = 3), G1) | Hematuria, number of patients with treatment-related AE (30 mg QD (n = 3), G1) | Hypertrichosis, number of patients with treatment-related AE (30 mg QD (n = 3), G1) | Leukopenia, number of patients with treatment-related AE (30 mg QD (n = 3), G1) | Palmar–plantar erythrodysesthesia, number of patients with treatment-related AE (30 mg QD (n = 3), G1) | Paronychia, number of patients with treatment-related AE (30 mg QD (n = 3), G1) | Proteinuria, number of patients with treatment-related AE (30 mg QD (n = 3), G1) | Skin fissures, number of patients with treatment-related AE (30 mg QD (n = 3), G1) | Weight decreased, number of patients with treatment-related AE (30 mg QD (n = 3), G1) | Alanine aminotransferase increased, number of patients with treatment-related AE (30 mg QD (n = 3), G2) | Aspartate aminotransferase increased, number of patients with treatment-related AE (30 mg QD (n = 3), G2) | Blood bilirubin increased, number of patients with treatment-related AE (30 mg QD (n = 3), G2) | Cheilitis, number of patients with treatment-related AE (30 mg QD (n = 3), G2) | Conjunctivitis, number of patients with treatment-related AE (30 mg QD (n = 3), G2) | Diarrhea, number of patients with treatment-related AE (30 mg QD (n = 3), G2) | ECG QT prolonged, number of patients with treatment-related AE (30 mg QD (n = 3), G2) | Edema, number of patients with treatment-related AE (30 mg QD (n = 3), G2) | Hematuria, number of patients with treatment-related AE (30 mg QD (n = 3), G2) | Hypertrichosis, number of patients with treatment-related AE (30 mg QD (n = 3), G2) | Leukopenia, number of patients with treatment-related AE (30 mg QD (n = 3), G2) | Nausea, number of patients with treatment-related AE (30 mg QD (n = 3), G2) | Proteinuria, number of patients with treatment-related AE (30 mg QD (n = 3), G2) | Skin fissures, number of patients with treatment-related AE (30 mg QD (n = 3), G2) | Alanine aminotransferase increased, number of patients with treatment-related AE (30 mg QD (n = 3), G3) | Aspartate aminotransferase increased, number of patients with treatment-related AE (30 mg QD (n = 3), G3) | Blood bilirubin increased, number of patients with treatment-related AE (30 mg QD (n = 3), G3) | Cheilitis, number of patients with treatment-related AE (30 mg QD (n = 3), G3) | Conjunctivitis, number of patients with treatment-related AE (30 mg QD (n = 3), G3) | Decreased appetite, number of patients with treatment-related AE (30 mg QD (n = 3), G3) | Diarrhea, number of patients with treatment-related AE (30 mg QD (n = 3), G3)
3: Diarrhea, number of patients with treatment-related AE (30 mg QD (n = 3), All) | Rash, number of patients with treatment-related AE (30 mg QD (n = 3), All) | Diarrhea, number of patients with treatment-related AE (30 mg QD (n = 3), G1)
1: Cheilitis, number of patients with treatment-related AE (30 mg QD (n = 3), All) | Conjunctivitis, number of patients with treatment-related AE (30 mg QD (n = 3), All) | Decreased appetite, number of patients with treatment-related AE (30 mg QD (n = 3), All) | Dry skin, number of patients with treatment-related AE (30 mg QD (n = 3), All) | Fatigue, number of patients with treatment-related AE (30 mg QD (n = 3), All) | Nausea, number of patients with treatment-related AE (30 mg QD (n = 3), All) | Weight decreased, number of patients with treatment-related AE (30 mg QD (n = 3), All) | Cheilitis, number of patients with treatment-related AE (30 mg QD (n = 3), G1) | Conjunctivitis, number of patients with treatment-related AE (30 mg QD (n = 3), G1) | Nausea, number of patients with treatment-related AE (30 mg QD (n = 3), G1) | Rash, number of patients with treatment-related AE (30 mg QD (n = 3), G1) | Stomatitis, number of patients with treatment-related AE (30 mg QD (n = 3), G1) | Decreased appetite, number of patients with treatment-related AE (30 mg QD (n = 3), G2) | Dry skin, number of patients with treatment-related AE (30 mg QD (n = 3), G2) | Fatigue, number of patients with treatment-related AE (30 mg QD (n = 3), G2) | Stomatitis, number of patients with treatment-related AE (30 mg QD (n = 3), G2) | Weight decreased, number of patients with treatment-related AE (30 mg QD (n = 3), G2)
2: Palmar–plantar erythrodysesthesia, number of patients with treatment-related AE (30 mg QD (n = 3), All) | Paronychia, number of patients with treatment-related AE (30 mg QD (n = 3), All) | Stomatitis, number of patients with treatment-related AE (30 mg QD (n = 3), All) | Palmar–plantar erythrodysesthesia, number of patients with treatment-related AE (30 mg QD (n = 3), G2) | Paronychia, number of patients with treatment-related AE (30 mg QD (n = 3), G2) | Rash, number of patients with treatment-related AE (30 mg QD (n = 3), G2)
